Common to all, as to format: cell-based
Assay [1] concerns the target T1, human sodium channels Nav 1.7 (Homo sapiens (Human), UniProt Q15858). The assay is described as follows: Automated whole-cell voltage-clamp (ScreenPatch 384P), Nav 1.7 sodium current, Protocol 2. Particulars: Protocol 2 (holding −100 mV, inactivation step −40 mV 8 s, 0.05 Hz); CHO cells expressing human Nav 1.7; read-out: Nav1.7 IC50. On the procedure:
(§1) Biological assays were performed on Chinese hamster ovary (CHO) cells expressing the human sodium channels Nav 1.8 and Nav 1.7 stably.
(§2) The experimental voltage-clamp protocol using the whole cell configuration was established on the automated ScreenPatch® 384P platform (SP384PE, Nanion Technologies, Livingston, NJ) and recording of the results was performed with a Nanion 384-well Patch Clamp chip (NPC) (Nanion Technologies, Livingston, NJ).
(§3) Compounds of Formula (I), were diluted in eight concentrations in the extracellular solution composed of physiological saline, buffered with HEPES (mM): NaCl, 137; KCl, 4; CaCl2, 3.8; MgCl2, 1; HEPES, 10; Glucose, 10; pH 7.4. The […], 50; CsF, 90; MgCl2, 5; EGTA, 5; HEPES, 10; pH 7.2. The duration of exposure of each compound with the cells expressing Nav 1.7 or Nav 1.8 was at least five minutes and the assays were performed at room temperature.
(§4) The measurements of the sodium currents of Nav 1.8 and Nav 1.7 were obtained using the voltage protocols described below: • Protocol 1: A holding voltage of −90 mV was established followed by a voltage phase of 200 ms to −120 mV, followed by a voltage step of 10 mV for 1 second for Nav 1.8 or 0 mV for Nav 1.7, followed by a step of −100 mV for 20 ms, followed by a step of 20 ms for 10 mV for Nav 1.8 or 0 mV for Nav 1.7 (TP1A) before returning to the holding voltage of −90 mV. • Protocol 2: A holding voltage of −100 mV was established followed by an inactivation voltage step at −40 mV for 8 seconds, followed by a −100 mV step for […], followed by a 20 ms step for 10 mV for Nav 1.8 or 0 mV for Nav 1.7 (TP1A) before returning to the holding voltage of −100 mV.
(§5) Protocols were repeated at a frequency of 0.1 Hz (Protocol 1) or 0.05 Hz (Protocol 2) and current amplitude was quantified over the TP1A phase log. The variation in the peak amplitude of the current was evaluated according to the Formula described below, after exposure of the cells expressing the channels, at each concentration of the different compounds:
(§6) [formula] • where |TP1A, basal, and |TP1A, molecule represent the entry peaks of sodium currents into TP1A prior to exposure to the compound and in the presence of the compound, respectively.
(§7) The decrease in peak current amplitude, after exposure of the cells to the compounds, was used to calculate the percent relative blocking of the channels relative to the positive control according to the Formula below:
(§8) [formula] • where % V and % CP represent the averages of the values of current inhibition with a vehicle (DMSO) and positive controls, respectively. The sodium currents of the positive control were considered as 100%.
(§9) [formula] • where [Test] represents the concentration of the evaluated molecule, IC50 is the concentration of the compound that generates half of the maximum inhibition, N is the Hill's coefficient and % Block′ is the percentage of the sodium channel current (Nav 1.8 and Nav 1.7) inhibited at each concentration of the evaluated molecule. Data were obtained by non-linear least squares regression with XLfit for Excel (Microsoft, Redmond, WA).
(§10) Compounds were tested in at least one assay to obtain the IC50 value.

Assay [2] addresses T2, human sodium channels Nav 1.8 (Homo sapiens (Human), UniProt Q9Y5Y9). As to the kind of experiment: Automated whole-cell voltage-clamp (ScreenPatch 384P), Nav 1.8 sodium current, Protocol 2. The settings on record: Protocol 2 (holding −100 mV, inactivation step −40 mV 8 s, 0.05 Hz); CHO cells expressing human Nav 1.8; read-out: Nav1.8 IC50. The protocol:
as §1, §2, §3, §4, §5, §6, §7, §8, §9, §10

Assay [3] concerns the target T2, human sodium channels Nav 1.8. The assay is described as follows: Automated whole-cell voltage-clamp (ScreenPatch 384P), Nav 1.8 sodium current, Protocol 1. Particulars: CHO cells expressing human Nav 1.8. The protocol: as §1, §2, §3, §4, §5, §6, §7, §8, §9, §10
Assay [4] concerns the target T1, human sodium channels Nav 1.7. As to the kind of experiment: Automated whole-cell voltage-clamp (ScreenPatch 384P), Nav 1.7 sodium current, Protocol 1. Particulars: CHO cells expressing human Nav 1.7. On the procedure: as §1, §2, §3, §4, §5, §6, §7, §8, §9, §10

Where only a bound is given, the exact number is not on record here.

T2 sequence (Q9Y5Y9 whole entry): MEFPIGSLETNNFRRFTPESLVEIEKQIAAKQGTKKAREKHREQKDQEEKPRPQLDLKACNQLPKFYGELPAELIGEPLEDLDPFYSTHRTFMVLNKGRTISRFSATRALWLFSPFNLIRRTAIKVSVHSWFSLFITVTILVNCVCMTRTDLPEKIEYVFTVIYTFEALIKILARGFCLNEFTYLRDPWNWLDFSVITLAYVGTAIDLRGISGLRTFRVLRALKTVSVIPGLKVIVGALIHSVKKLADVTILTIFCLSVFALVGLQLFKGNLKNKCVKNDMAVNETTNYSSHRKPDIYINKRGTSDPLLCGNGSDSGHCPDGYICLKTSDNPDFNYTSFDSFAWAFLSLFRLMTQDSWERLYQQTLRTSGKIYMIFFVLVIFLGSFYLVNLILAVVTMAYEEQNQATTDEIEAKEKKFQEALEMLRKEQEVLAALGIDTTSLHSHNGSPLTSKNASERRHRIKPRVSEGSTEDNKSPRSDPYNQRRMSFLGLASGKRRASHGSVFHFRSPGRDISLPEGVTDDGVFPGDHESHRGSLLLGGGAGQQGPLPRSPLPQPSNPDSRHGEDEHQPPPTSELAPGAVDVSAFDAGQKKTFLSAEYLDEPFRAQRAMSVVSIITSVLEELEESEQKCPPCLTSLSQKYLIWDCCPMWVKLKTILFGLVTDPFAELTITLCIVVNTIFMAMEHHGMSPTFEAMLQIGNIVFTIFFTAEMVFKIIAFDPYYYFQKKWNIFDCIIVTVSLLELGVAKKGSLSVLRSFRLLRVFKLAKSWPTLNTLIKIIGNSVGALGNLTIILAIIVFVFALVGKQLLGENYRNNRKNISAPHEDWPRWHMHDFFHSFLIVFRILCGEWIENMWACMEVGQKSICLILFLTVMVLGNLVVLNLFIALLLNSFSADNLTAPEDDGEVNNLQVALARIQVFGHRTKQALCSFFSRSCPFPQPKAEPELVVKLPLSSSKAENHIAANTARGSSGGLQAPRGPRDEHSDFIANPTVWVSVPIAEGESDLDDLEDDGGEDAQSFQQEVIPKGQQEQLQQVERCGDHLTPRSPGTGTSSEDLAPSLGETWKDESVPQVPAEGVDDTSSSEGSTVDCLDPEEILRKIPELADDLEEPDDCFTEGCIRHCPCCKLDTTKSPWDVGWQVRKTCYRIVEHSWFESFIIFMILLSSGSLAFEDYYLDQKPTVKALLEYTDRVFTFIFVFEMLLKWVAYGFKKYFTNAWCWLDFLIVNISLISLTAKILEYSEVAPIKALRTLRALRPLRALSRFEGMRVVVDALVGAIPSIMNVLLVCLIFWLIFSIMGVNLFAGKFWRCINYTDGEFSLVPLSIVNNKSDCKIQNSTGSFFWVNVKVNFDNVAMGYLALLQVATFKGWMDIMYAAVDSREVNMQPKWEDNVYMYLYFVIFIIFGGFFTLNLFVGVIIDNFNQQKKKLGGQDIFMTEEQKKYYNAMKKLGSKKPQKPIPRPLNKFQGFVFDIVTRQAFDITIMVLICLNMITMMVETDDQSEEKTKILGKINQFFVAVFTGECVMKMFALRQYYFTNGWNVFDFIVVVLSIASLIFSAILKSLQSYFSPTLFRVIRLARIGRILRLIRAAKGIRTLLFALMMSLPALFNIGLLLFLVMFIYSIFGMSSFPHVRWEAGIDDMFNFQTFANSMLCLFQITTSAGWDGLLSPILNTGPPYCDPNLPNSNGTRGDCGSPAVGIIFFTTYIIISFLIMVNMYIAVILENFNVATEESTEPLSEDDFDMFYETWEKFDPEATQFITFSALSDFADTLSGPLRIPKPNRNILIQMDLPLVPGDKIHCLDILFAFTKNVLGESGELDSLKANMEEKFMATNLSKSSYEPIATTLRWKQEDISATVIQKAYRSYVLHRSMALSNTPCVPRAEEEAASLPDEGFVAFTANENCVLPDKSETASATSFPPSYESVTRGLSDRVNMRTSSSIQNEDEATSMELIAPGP
T1 sequence (Q15858 whole entry): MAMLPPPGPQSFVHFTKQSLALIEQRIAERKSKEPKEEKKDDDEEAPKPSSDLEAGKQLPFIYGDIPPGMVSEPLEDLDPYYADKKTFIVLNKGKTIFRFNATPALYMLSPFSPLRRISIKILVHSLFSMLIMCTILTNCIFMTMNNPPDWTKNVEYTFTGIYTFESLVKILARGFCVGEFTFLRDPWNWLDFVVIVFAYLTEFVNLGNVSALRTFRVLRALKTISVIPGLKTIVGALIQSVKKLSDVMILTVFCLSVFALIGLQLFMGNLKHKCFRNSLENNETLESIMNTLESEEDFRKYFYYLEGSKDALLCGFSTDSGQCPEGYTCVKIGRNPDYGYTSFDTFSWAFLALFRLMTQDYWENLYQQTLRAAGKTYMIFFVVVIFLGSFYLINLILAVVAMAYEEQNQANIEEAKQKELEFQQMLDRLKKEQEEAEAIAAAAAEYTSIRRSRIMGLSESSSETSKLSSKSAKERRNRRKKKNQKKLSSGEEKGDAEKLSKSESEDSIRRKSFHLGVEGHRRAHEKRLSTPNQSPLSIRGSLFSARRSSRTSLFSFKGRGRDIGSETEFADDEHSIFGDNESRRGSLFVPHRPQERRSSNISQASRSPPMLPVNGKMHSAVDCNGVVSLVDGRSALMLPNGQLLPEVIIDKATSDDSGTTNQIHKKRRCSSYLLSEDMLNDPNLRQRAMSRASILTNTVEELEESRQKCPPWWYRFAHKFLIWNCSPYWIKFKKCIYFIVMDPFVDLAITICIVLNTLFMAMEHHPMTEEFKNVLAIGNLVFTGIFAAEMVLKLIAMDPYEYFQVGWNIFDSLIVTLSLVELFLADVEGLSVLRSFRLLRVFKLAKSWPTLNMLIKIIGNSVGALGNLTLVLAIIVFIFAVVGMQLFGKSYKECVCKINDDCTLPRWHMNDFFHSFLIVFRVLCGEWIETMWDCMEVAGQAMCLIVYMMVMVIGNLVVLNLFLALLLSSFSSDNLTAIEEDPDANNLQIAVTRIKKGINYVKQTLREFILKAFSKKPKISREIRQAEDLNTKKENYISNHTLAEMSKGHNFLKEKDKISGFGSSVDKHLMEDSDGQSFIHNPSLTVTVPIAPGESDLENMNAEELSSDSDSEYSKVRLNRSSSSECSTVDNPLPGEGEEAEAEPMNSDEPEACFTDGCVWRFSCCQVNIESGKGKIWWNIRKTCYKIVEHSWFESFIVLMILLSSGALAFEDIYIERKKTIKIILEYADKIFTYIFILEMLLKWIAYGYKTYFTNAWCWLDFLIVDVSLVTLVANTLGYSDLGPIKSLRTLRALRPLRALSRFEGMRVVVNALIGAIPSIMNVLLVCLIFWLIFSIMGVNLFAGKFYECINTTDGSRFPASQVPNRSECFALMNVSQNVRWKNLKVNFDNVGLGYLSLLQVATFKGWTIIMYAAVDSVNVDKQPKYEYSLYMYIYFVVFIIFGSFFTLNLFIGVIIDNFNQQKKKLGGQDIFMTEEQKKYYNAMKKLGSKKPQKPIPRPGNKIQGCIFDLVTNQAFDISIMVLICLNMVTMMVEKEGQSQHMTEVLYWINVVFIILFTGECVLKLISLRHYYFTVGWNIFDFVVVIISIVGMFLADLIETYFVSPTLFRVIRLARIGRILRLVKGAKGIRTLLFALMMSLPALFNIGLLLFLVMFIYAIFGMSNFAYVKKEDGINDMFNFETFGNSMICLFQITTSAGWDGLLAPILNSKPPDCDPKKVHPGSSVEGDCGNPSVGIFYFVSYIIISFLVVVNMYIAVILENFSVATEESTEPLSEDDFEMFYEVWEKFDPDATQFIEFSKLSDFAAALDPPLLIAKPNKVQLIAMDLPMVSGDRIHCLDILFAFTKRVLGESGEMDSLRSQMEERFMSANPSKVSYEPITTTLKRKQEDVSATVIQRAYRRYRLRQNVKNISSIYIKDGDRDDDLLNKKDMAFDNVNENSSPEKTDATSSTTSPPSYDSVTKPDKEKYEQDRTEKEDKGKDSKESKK

For the compound `COc1cc(/C=N/NC(=O)c2cccc(-c3ccc(OC(F)(F)F)cc3)n2)cc(OC)c1` [Compound 40, (E)-N′-(3,5-dimethoxybenzylidene)-6-(4-(trifluoromethoxy)phenyl) picolinohydrazide], the results for the IC50 in assay [1] and in assay [2] were 123 nM and 140 nM, respectively.

As for `CCOc1ccc(-c2cc(F)cc(C(=O)N/N=C/c3cc(OC)cc(OC)c3)n2)cc1` [Compound 68, (E)-N′-(3,5-dimethoxybenzylidene)-6-(4-ethoxyphenyl)-4-fluoropicolinohydrazide], the IC50 (commonly the concentration needed to halve the response being measured) is above 10000 nM in assay [1] and 636 nM in assay [2].

Take `COc1cc(/C=N/NC(=O)c2nccc(-c3ccc(Cl)cc3)n2)cc(OC)c1` [Compound 60, (E)-4-(4-chlorophenyl)-N′-(3,5-dimethoxybenzylidene)pyrimidine-2-carbohydrazide]: the results for the IC50 in assay [1] and in assay [2] were 5150 nM and 5040 nM, respectively.

`CCCCOc1ccc(-c2cccc(C(=O)N/N=C/c3cc(OC)cc(OC)c3)n2)cc1` [Compound 41, (E)-6-(4-butoxyphenyl)-N′-(3,5-dimethoxybenzylidene) picolinohydrazide]: the IC50 was 1200 nM in assay [1] and above 1000 nM in assay [2].

For `CCCOc1ccc(-c2cccc(C(=O)N/N=C/c3cc(OC)cc(OC)c3)n2)cc1` [Compound 15, (E)-N′-(3,5-dimethoxybenzylidene)-6-(4-propoxyphenyl) picolinohydrazide], the IC50 turned out to be 272 nM in assay [1] and 297 nM in assay [2].

Regarding `COc1cc(/C=N/NC(=O)c2nccc(-c3ccc(OC4CCCC4)cc3)n2)cc(OC)c1` [Compound 63, (E)-4-(4-(cyclopentyloxy)phenyl)-N′-(3,5-dimethoxybenzylidene)pyrimidine-2-carbohydrazide], the values for the half-inhibitory concentration (IC50) in assay [1] and in assay [2] were 306 nM and above 1000 nM, respectively.

As to `CCCCOc1ccc(-c2cc(C(=O)N/N=C/c3cc(OC)cc(OC)c3)ccn2)cc1` [Compound 38, (E)-2-(4-butoxyphenyl)-N′-(3,5-dimethoxybenzylidene) isonicotinohydrazide], the IC50 is above 10000 nM in assay [1] and above 1000 nM in assay [2].

For the compound `CCOc1ccc(-c2cc(C(F)(F)F)cc(C(=O)N/N=C/c3cc(OC)cc(OC)c3)n2)cc1` [Compound 69], the IC50 in assay [1] is above 10000 nM; in assay [2], above 1000 nM.

As to `COc1ccc(-c2noc(C(=O)N/N=C/c3cc(OC)cc(OC)c3)n2)cc1` [Compound 75, (E)-N′-(3,5-dimethoxybenzylidene)-3-(4-methoxyphenol)-1,2,4-oxadiazole-5-carbohydrazide], the IC50 in assay [1] is above 10000 nM; in assay [2], above 1000 nM.

`COc1cc(/C=N/NC(=O)c2nccc(-c3ccc(OC(F)(F)F)cc3)n2)cc(OC)c1` [Compound 64, (E)-N′-(3,5-dimethoxybenzylidene)-4-(4-(trifluoromethoxy)phenyl) pyrimidine-2-carbohydrazide]: the IC50 was determined as 173 nM in assay [1] and 384 nM in assay [2].

On to `COc1ccc(-c2ccc(C(=O)N/N=C/c3cc(OC)cc(OC)c3)s2)cc1` [Compound 72, (E)-N′-(3,5-dimethoxybenzylidene)-5-(4-methoxyphenyl)thiophene-2-carbohydrazide], for which the half-inhibitory concentration (IC50) in assay [1] was above 10000 nM; in assay [2], above 1000 nM.

`COc1ccc(-c2cccc(C(=O)N/N=C/c3cc(OC)cc(OC)c3)n2)cc1` [Compound 14, (E)-N′-(3,5-dimethoxybenzylidene)-6-(4-methoxyphenyl) picolinohydrazide]: the results for the IC50 in assay [1] and in assay [2] were 1320 nM and 754 nM, respectively.

Turning to `COc1ccc(-c2ncc(C(=O)N/N=C/c3cc(OC)cc(OC)c3)o2)cc1` [Compound 73, (E)-N′-(3,5-dimethoxybenzylidene)-2-(4-methoxyphenyl) oxazole-5-carbohydrazide], the results for the IC50 in assay [1] and in assay [2] were above 10000 nM and above 1000 nM, respectively.

On to `COc1ccc(-c2nc(C(=O)N/N=C/c3cc(OC)cc(OC)c3)co2)cc1` [Compound 74, (E)-N′-(3,5-dimethoxybenzylidene)-2-(4-methoxyphenol) oxazole-4-carbohydrazide], for which the IC50 in assay [1] is above 10000 nM; in assay [2], above 1000 nM.

`COc1cc(/C=N/NC(=O)c2ccnc(-c3ccc(OC(C)C)cc3)n2)cc(OC)c1` [Compound 54, (E)-N′-(3,5-dimethoxybenzylidene)-2-(4-isopropoxyphenyl)pyrimidine-4-carbohydrazide]: the IC50 in assay [1] was determined as 137 nM; in assay [2] it was 313 nM.

On to `CCOc1ccc(-c2ccnc(C(=O)N/N=C/c3cc(OC)cc(OC)c3)n2)cc1` [Compound 61, (E)-N′-(3,5-dimethoxybenzylidene)-4-(4-ethoxyphenyl)pyrimidine-2-carbohydrazide], for which the results for the IC50 in assay [1] and in assay [2] were 651 nM and 183 nM, respectively.

`COc1ccc(-c2nc(C(=O)N/N=C/c3cc(OC)cc(OC)c3)cs2)cc1` [Compound 76, (E)-N′-(3,5-dimethoxybenzylidene)-2-(4-methoxyphenyl) thiazole-4-carbohydrazide]: the figures for the IC50 in assay [1] and in assay [2] were above 10000 nM and above 1000 nM, respectively.

Take `CCOc1ccc(-c2cccc(C(=O)N/N=C/c3cc(OC)cc(OC)c3)n2)cc1` [Compound 31, (E)-N′-(3,5-dimethoxybenzylidene)-6-(4-ethoxyphenyl) picolinohydrazide]: the concentration for half-maximal inhibition (IC50) in assay [1] was found to be 444 nM; in assay [2], 224 nM.

As for `COc1ccc(-c2ccnc(C(=O)N/N=C/c3cc(OC)cc(OC)c3)n2)cc1` [Compound 65, (E)-N′-(3,5-dimethoxybenzylidene)-4-(4-methoxyphenyl)pyrimidine-2-carbohydrazide], the IC50 was 6440 nM in assay [1] and above 1000 nM in assay [2].

As to `COc1cc(/C=N/NC(=O)c2nccc(-c3ccc(OC(C)C)cc3)n2)cc(OC)c1` [Compound 62, (E)-N′-(3,5-dimethoxybenzylidene)-4-(4-isopropoxyphenyl)pyrimidine-2-carbohydrazide], the IC50 in assay [1] was determined as 302 nM; in assay [2] it was 462 nM.

Turning to `CCCOc1ccc(-c2ccnc(C(=O)N/N=C/c3cc(OC)cc(OC)c3)n2)cc1` [Compound 66, (E)-N′-(3,5-dimethoxybenzylidene)-4-(4-propoxyphenyl)pyrimidine-2-carbohydrazide], the half-inhibitory concentration (IC50) in assay [1] was 569 nM; in assay [2], above 1000 nM.

Turning to `COc1cc(/C=N/NC(=O)c2ccnc(-c3ccc(OC4CCCC4)cc3)c2)cc(OC)c1` [Compound 39, (E)-2-(4-(cyclopentyloxy)phenyl)-N′-(3,5-dimethoxybenzylidene) isonicotinohydrazide], the figures for the half-inhibitory concentration (IC50) in assay [1] and in assay [2] were above 10000 nM and above 1000 nM, respectively.

Consider `COc1cc(/C=N/NC(=O)c2ccnc(-c3ccc(Cl)cc3)c2)cc(OC)c1` [Compound 20, (E)-2-(4-chlorophenyl)-N′-(3,5-dimethoxybenzylidene) isonicotinohydrazide], for which the inhibition (as a rule, the percentage by which the read-out fell short of the control) at 10 µM in assay [3] (10 μM, Protocol 1, read-out: Nav1.8 percent of inhibition (IC50 value not available)) was below 10%; in assay [4] (10 μM, Protocol 1, read-out: Nav1.7 percent of inhibition (IC50 value not available)), below 10%.

Take `COc1cc(/C=N/NC(=O)c2cncc(-c3ccc(OC4CCCC4)cc3)c2)cc(OC)c1` [Compound 28, (E)-5-(4-(cyclopentyloxy)phenyl)-N′-(3,5-dimethoxybenzylidene) nicotinohydrazide]: the half-inhibitory concentration (IC50) in assay [3] (Protocol 1 (holding −90 mV, 0.1 Hz), room temperature, read-out: Nav1.8 IC50) was above 10000 nM; in assay [4] (Protocol 1 (holding −90 mV, 0.1 Hz), room temperature, read-out: Nav1.7 IC50), above 10000 nM.
